Experimental data: patent publication US20260069604A1, “NOVEL EQUILIBRATIVE NUCLEOSIDE TRANSPORTER INHIBITORS AND METHODS OF MAKING AND USING SAME” (Duke University, priority 2022, published 2026)
Where a chain is given by its changes, count along the chain named. “Also recorded” adds a separate entry of the source.

Assays:
hENT1cryst = target: T1, hENT1cryst (Homo sapiens, UniProt Q99808, DEL243-274/L168F/N288K/P175A); experiment: cold-competition SPA: displacement of 3H-NBMPR from detergent purified hENT1cryst; assay type: binding
T1 construct: GFP; FLAG; His10; made in house
T1 sequence (Q99808 with tags, fused parts or gaps L168F/P175A/DEL243-274/N288K): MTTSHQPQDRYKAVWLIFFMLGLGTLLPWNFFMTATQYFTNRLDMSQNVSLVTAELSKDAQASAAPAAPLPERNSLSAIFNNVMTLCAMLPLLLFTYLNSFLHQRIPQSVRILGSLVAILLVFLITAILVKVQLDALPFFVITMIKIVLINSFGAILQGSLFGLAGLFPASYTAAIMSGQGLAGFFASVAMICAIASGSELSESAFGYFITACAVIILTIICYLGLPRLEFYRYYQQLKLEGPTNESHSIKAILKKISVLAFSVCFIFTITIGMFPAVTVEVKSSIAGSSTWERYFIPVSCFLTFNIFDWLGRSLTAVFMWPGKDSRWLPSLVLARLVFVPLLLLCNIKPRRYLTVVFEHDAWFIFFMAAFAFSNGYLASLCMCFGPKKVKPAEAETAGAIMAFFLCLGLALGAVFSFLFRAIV
Protocol: The binding of cold competitor (dilazep control or JH-ENT-01) to hENT1cryst (85 nM) was assessed by the displacement of ^3H-NBMPR (10 nM) from the transporter (n=6 technical replicates from two representative experiments shown, error bars represent S.E.M.) FIG. 18A-C show initial functional characterization of novel hENT1 inhibitors.
A scintillation proximity assay was developed to measure binding of ^3H-NBMPR to hENT1-GFP fusion expressed and detergent solubilized from transiently transfected HEK293T cells (see Methods for details). By successively heating the assay mixture at increasing temperatures and measuring binding signal with scintillation counting, Tm values were determined for engineered hENT1 constructs bearing point mutations or truncations of disordered loops. Point mutations were designed based on a consensus approach, which is described in the Methods section of this chapter. A total of 40 point mutations or disordered-loop truncations were screened with this ^3H-NBMPR SPA approach (FIG. 4A). Mutations L168F, P175A and N288K were identified to substantially increase Tm. […] Importantly, hENT1cryst mediates nucleoside transport to a level consistent with a previous report in proteoliposomes (FIG. 3A) and is also functionally active in when expressed in oocytes (FIG. 3B). […]

hENT2 = target: T2, hENT2 (Homo sapiens, UniProt Q14542); experiment: 3H-adenosine uptake in oocytes expressing hENT2; assay type: cell-based; conditions: initial experiment n=1, FIG. 19
T2 construct: expressed in transfected cells; host or cells: oocytes (X. laevis)
T2 sequence (Q14542 1-456): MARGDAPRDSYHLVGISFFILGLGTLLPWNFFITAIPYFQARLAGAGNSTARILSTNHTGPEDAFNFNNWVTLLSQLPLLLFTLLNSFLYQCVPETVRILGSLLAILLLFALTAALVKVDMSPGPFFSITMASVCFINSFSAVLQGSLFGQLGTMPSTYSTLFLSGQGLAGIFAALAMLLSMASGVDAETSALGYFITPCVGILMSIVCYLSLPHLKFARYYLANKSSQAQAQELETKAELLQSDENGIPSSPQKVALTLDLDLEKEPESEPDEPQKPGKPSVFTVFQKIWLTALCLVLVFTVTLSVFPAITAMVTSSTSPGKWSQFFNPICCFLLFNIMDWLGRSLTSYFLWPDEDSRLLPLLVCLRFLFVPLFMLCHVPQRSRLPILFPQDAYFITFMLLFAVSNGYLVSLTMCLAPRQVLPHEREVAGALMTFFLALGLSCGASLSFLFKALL
Protocol: (§1) Initial experiment (n=1 replicates) showing JH-ENT-01 inhibits both hENT1 and hENT2 mediated uptake of ^3H-adenosine.
(§2) The subtype specificities for these compounds are currently unknown and pending further investigation with functional assays. Towards this end, established assays in oocytes permitted the measurement of nucleoside transport activity for multiple ENT subtypes (FIG. 18C) and the novel inhibitors were tested for their activities on different ENT subtypes (FIG. 19).

hENT1 = target: T3, hENT1 (Homo sapiens, UniProt Q99808); experiment: 3H-adenosine uptake in oocytes expressing hENT1; assay type: cell-based; conditions: initial experiment n=1, FIG. 19
T3 construct: expressed in transfected cells; host or cells: oocytes (X. laevis)
T3 sequence (Q99808 1-456): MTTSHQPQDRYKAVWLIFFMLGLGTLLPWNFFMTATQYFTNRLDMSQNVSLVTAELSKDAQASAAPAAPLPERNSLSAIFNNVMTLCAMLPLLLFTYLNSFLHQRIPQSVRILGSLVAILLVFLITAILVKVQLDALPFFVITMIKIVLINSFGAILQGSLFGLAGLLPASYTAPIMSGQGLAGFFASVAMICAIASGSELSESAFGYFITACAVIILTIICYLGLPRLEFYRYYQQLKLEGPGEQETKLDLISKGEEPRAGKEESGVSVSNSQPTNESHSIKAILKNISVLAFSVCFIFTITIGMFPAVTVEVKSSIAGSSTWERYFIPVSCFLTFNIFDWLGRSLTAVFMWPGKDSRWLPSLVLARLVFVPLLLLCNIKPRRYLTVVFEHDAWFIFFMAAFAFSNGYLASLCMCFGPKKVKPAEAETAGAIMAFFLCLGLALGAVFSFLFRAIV
Protocol: as §1, §2

[1] = system: SNI-induced neuropathic pain; experiment: SNI-induced neuropathic pain measured by PWF; assay type: in vivo; conditions: i.t., 100 nmol; p<0.05; n=4 males per group
[2] = plasma, brain and spinal cord pharmacokinetics after subcutaneous dosing; assay type: in vivo, Male CD-1 mice; conditions: for distribution into CNS tissue: brain and spinal cord, s.c. dosing, in equilibrium with plasma, no accumulation
Protocol: FIG. 27A-D show plasma (FIG. 27A), brain (FIG. 27B), and spinal cord (FIG. 27C) pharmacokinetics (PK) of JH-ENT-01 and dilazep. […] Male CD-1 mice (n=3 per time-point) were dosed subcutaneously (inj. volume: 8 μL/g BW) with 30 mg/kg of JH-ENT-01 (free base) and 29 mg/kg (molar equivalent) of dilazep dihydrochloride. Both drugs were formulated in 5% DMSO, 20% PEG-400, 20% propylene glycol, and 55% saline. Blood and tissues were collected at 10 min, 0.5, 1.5, 4.5, 8, 12, and 24 h. Following collection, the animals were perfused with saline. Liquid chromatography-tandem-mass spectrometry (LC/MS/MS) was used to determine drug concentration in samples. Pharmacokinetic parameters were calculated by non-compartmental approach within Win-Nonlin software. […] The distribution of both drugs into CNS tissue is high and is in equilibrium with plasma drug concentration (i.e., no drug accumulation in CNS).

[3] = target: T4, hENT1cryst mutants (M33I, F307A, F307Y) (Homo sapiens, UniProt Q99808, DEL244-275/F307Y/L168F/N288K/P175A); experiment: cold competition displacement of 3H-NBMPR by dilazep, hENT1cryst mutants; assay type: binding; conditions: F307Y mutant vs hENT1cryst
T4 construct: GFP; FLAG; His10; made in house
T4 sequence (Q99808 with tags, fused parts or gaps L168F/P175A/DEL244-275/N288K/F307Y): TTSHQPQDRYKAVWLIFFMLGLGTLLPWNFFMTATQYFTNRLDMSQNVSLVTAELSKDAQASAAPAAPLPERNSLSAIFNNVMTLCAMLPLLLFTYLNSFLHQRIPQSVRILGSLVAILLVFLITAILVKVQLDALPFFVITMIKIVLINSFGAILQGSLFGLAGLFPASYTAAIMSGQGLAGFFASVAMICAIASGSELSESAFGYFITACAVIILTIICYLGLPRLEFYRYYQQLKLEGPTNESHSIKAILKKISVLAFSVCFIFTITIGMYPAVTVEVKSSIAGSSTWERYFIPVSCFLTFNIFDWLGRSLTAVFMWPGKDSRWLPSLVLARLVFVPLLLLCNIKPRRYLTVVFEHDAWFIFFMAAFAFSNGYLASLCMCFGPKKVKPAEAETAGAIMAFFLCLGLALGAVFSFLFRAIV
From the text: (§3) This is substantiated by the equilibrium binding data, as both Q158S and Q158N ablate 3H-NBMPR binding capacity (FIG. 13B). […] This finding is consistent with previous reports on inhibitor sensitivities to substitutions at position 33 of hENT1.

[4] = target: T5, hENT1cryst mutants (M33I, F307A, F307Y) (Homo sapiens, UniProt Q99808, DEL244-275/L168F/M33I/N288K/P175A); experiment: as above; assay type: binding; conditions: M33I mutant vs hENT1cryst
T5 construct: GFP; FLAG; His10; made in house
T5 sequence (Q99808 with tags, fused parts or gaps M33I/L168F/P175A/DEL244-275/N288K): T4 sequence (Q99808 with tags, fused parts or gaps L168F/P175A/DEL244-275/N288K/F307Y) with M32I, Y274F
From the text: as §3

[5] = target: T6, hENT1cryst mutants (M33I, F307A, F307Y) (Homo sapiens, UniProt Q99808, DEL244-275/F307A/L168F/N288K/P175A); experiment: as above; assay type: binding; conditions: F307A mutant vs hENT1cryst
T6 construct: GFP; FLAG; His10; made in house
T6 sequence (Q99808 with tags, fused parts or gaps L168F/P175A/DEL244-275/N288K/F307A): T4 sequence (Q99808 with tags, fused parts or gaps L168F/P175A/DEL244-275/N288K/F307Y) with Y274A
From the text: as §3

[6] = s.c. 30 mg/kg JH-ENT-01 (free base) vs 29 mg/kg dilazep dihydrochloride

Row | increase in binding affinity to hENT1cryst (hENT1cryst; cold competitor vs dilazep control, hENT1cryst 85 nM, 3H-NBMPR 10 nM) [fold] | inhibition of hENT2 mediated uptake of 3H-adenosine (hENT2) | distribution into CNS tissue [2] | half-life compared to dilazep [2, 6] | plasma AUC compared to dilazep [2, 6] | decrease in apparent Kd for dilazep [3] [fold] | increase in apparent Kd for dilazep [4] [fold] | increase in apparent Kd for dilazep [5] [fold] | Compound | binding to target (hENT1cryst; in words, compared to dilazep (FIG. 17)) | inhibition of hENT1 mediated uptake of 3H-adenosine (hENT1) | effect on SNI-induced neuropathic pain (PWF) [1]
1 | ~2 | inhibits | high | longer half-life | higher plasma AUC |  |  |  | COc1cc(C(=O)OCCCN2CCCN(CCCOC(=O)c3cc(OC)c(OC)c(OCc4ccc([N+](=O)[O-])cc4)c3)CC2)cc(OC)c1OC [JH-ENT-01] | improved binding to target compared to dilazep | inhibits; also recorded: retains potent inhibition activity | reversing SNI-induced neuropathic pain
2 |  |  | high |  |  | ~4 | ~3 | ~90 | COc1cc(C(=O)OCCCN2CCCN(CCCOC(=O)c3cc(OC)c(OC)c(OC)c3)CC2)cc(OC)c1OC [dilazep] |  |  | 
